These results are taken from ChEMBL document CHEMBL5678818, “Discovery of potent SOS1 inhibitors that block RAS activation via disruption of the RAS-SOS1 interaction” (Proc Natl Acad Sci U S A, 2019).

Experiment [1] addresses T1, Serine/threonine-protein kinase DCLK1 (Homo sapiens) (UniProt O15075).
T1 sequence (whole entry): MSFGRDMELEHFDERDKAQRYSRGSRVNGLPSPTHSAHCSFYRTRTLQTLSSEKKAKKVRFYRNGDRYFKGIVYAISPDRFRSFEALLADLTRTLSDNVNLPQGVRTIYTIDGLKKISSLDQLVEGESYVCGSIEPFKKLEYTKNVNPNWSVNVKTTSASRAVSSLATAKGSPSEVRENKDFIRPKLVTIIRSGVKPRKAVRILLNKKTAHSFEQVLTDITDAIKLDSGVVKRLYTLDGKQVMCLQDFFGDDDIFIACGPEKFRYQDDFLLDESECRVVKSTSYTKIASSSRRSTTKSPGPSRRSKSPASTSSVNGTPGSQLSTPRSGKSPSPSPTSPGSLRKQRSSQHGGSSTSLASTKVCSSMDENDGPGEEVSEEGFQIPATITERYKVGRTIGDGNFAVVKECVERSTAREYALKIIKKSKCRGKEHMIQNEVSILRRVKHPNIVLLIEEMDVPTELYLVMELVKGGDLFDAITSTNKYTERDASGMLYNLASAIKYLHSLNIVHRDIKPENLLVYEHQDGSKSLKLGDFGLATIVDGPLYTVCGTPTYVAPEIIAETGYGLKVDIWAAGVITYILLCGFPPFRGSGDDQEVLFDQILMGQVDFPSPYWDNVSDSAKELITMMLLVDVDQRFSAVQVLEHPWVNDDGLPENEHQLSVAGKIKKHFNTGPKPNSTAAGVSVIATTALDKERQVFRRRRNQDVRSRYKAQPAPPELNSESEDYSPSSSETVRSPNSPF
Description: Inhibition of DCAMKL1 (unknown origin) assessed as residual activity at 100 nM by KINOMEscan analysis relative to control.

Experiment [2] deals with T2, Mitogen-activated protein kinase 12 (Homo sapiens) (UniProt P53778).
T2 sequence (whole entry): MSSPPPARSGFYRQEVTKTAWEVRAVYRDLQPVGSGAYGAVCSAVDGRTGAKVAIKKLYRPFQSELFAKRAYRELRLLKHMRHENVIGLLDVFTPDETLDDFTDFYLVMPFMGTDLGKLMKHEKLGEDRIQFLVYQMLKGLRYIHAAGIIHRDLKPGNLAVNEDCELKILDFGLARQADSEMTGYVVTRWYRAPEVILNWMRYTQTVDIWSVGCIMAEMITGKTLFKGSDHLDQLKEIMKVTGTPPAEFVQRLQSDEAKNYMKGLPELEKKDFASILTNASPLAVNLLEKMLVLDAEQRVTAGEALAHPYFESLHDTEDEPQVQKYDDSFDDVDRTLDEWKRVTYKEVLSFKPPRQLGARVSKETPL
Description: Inhibition of p38-gamma (unknown origin) assessed as residual activity at 100 nM by KINOMEscan analysis relative to control.

In experiment [3] the target is T3, Serine/threonine-protein kinase Nek11 (Homo sapiens) (UniProt Q8NG66).
T3 sequence (whole entry): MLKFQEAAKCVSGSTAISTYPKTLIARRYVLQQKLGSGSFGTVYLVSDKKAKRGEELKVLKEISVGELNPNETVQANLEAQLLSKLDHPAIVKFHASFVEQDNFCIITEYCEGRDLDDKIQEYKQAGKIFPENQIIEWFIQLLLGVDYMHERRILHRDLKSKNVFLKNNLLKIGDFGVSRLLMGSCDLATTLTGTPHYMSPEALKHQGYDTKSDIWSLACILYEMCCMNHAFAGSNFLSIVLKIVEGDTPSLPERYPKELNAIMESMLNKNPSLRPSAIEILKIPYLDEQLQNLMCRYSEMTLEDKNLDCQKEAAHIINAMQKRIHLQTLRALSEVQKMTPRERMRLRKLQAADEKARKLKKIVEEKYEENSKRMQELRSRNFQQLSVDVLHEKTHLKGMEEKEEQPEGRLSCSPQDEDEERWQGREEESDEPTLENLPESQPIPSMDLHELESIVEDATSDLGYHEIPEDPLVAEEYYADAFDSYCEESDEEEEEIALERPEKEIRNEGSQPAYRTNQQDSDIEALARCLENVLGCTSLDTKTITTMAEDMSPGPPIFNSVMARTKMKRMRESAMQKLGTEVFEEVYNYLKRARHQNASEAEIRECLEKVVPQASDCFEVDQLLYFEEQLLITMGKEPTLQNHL
Description: Inhibition of NEK11 (unknown origin) assessed as residual activity at 100 nM by KINOMEscan analysis relative to control.

For `COc1cc2ncnc(N[C@H](C)c3cccc4ccccc34)c2cc1OC`, the Activity in experiment [1] turned out to be 86%; in experiment [2], 96%; in experiment [3], 79%.
